# Reference: US20030129189A1, “Tumor necrosis factor-gamma” (priority 1994, published 2003)
# What was measured:
# [1] = test system: NRK-54E; test: TNF-gamma activity on NRK-54E cells; format: cell-based; set-up: key: The numbers of “+” indicate the relative level of activities.; ++: The numbers of “+” indicate the relative level of activities.; +++: The numbers of “+” indicate the relative level of activities.; “−” indicates no detected activity at the concentration range tested; conditions: rat kidney epithelial-like
# [2] = test system: L929; test: TNF-gamma activity on L929 cells (MTS cytotoxicity/proliferation, morphology); format: cell-based, mouse; set-up: key to Proliferation / Differentiation / Adhesion: The numbers of “+” indicate the relative level of activities.; ++: The numbers of “+” indicate the relative level of activities.; +++: The numbers of “+” indicate the relative level of activities.; “−” indicates no detected activity at the concentration range tested
# Protocol: (§1) The adherent target cells were prepared from confluent cultures by trypsinization in PBS, and non-adherent target cells were harvested from stationary cultures and washed once with medium. Target cells were suspended at 3×10^5 cells/ml in medium containing 10% FCS. 0.1 ml aliquots were dispensed into 96-well flat-bottomed microtiter plates containing 0.1 ml serially diluted test samples of cells (WEHI 164 and L929). Incubation was continued for 70 hours. TNF-alpha, TNF-beta and bacterially-produced TNF-gamma were added at a 0.5 μg/ml concentration. The cytotoxicity and proliferation activity was quantified using an MTS assay performed by the addition of 20 μl of MTS and phenazine methosulfate (PMS) solution to each well. After a three hour incubation, the OD at 492 nm was measured by an ELISA plate reader. The OD492 is proportional to the number of viable cells in the wells. The percent of cytotoxicity was calculated as follows: […]. The photographs were taken after 72 hours.
# (§2) In the graph of FIG. 7B, the assay was performed as described above, however, increasing amounts of TNF-alpha, TNF-beta and TNF-gamma were added to the cultures.
# [3] = test system: Primary human aterial endothelial; test: TNF-gamma activity on primary human arterial endothelial cells; format: cell-based; set-up: key: The numbers of “+” indicate the relative level of activities.; ++: The numbers of “+” indicate the relative level of activities.; +++: The numbers of “+” indicate the relative level of activities.; “−” indicates no detected activity at the concentration range tested
# [4] = test system: bovine pulmonary artery endothelial cells (BPAEC); test: Endothelial cell apoptosis (morphology, Hoechst staining, DNA fragmentation); format: cell-based; conditions: BPAEC, 48 hours, Hoechst 33342
# Protocol: [Bovine pulmonary artery endothelial cells were incubated with various concentrations of TNF-gamma for 48 hours. The apoptosis was assessed by nuclear staining with Hoechst 33342 fluorescence dye (10 mg/ml).] […] [U937 cells were transfected using lipofectamine (following manufacturer's instruction) with 0.2 mg of reporter plasmid (NF-kappaB-SEAP). The transfected U937 cells were collected and added to the 96-well plate ([…]/well) with various concentrated of TNF-gamma. After Incubation at 37° C. for 72 hr, the NF-kappaB activity was measured with luminometer at absorbance of 450 nm.]
# Bovine pulmonary artery endothelia cells (BPAEC) were incubated with various concentrations of TNF-gamma for 48 hours. Apoptosis was assessed morphologically and by nuclear staining with Hoechst 33342 fluorescence dye (10 mg/ml) in triplicate. Live and apoptotic cells were scored in four random fields, about 1,000 cells were counted. The DNA fragmentation was analyzed as described previously.
# BPAEC were obtained from the American Type Culture Collection (Rockville, Md., USA). The cells were grown in DMEM supplemented with 10% heat-inactivated FCS in a humidified environment of 5% CO2/[…] at 37° C. as previously described (Yue, T. L., et al., Mol. Pharmacol. 51:951-962 (1997)). Cells at a subconfluent density were used. Before experiments, the medium was changed to DMEM contained 2% FCS. BPAEC from passages 17-20 were used in all studies.
# To quantify cells undergoing apoptosis, cell monolayers were fixed and stained with Hoechst […] (Molecular probe, Eugene, Oreg., USA) as described previously (Yue, T. L., et al., Mol. Pharmacol. 51:951-962 (1997)). The morphological features of apoptosis (cell shrinkage, chromatin condensation, blebbing, and fragmentation) were monitored by fluorescence microscopy. Transmission electron microscopy study was done as reported previously (Yue, T. L., et al., Mol. Pharmacol. 51:951-962 (1997)).
# DNA ladder: Cells treated with vehicle or TNF-gamma-alpha were lysed in lysis buffer containing 100 mM NaCl, 10 mM Tris-HCl, pH 8.0, 2.5 mM EEDTA, 0.5% SDS, and 100 micrograms/ml […]. The lysates were incubated at 55° C. for 16 h. After incubation, the lysates were gently extracted three times with pheno/chloroform/isoamyl alcohol, precipitated in ethanol, treated with DNAse-free RNAse, re-extracted, and precipitated again as described previously. DNA electrophoresis was carried out in 1.8% agarose gels containing ethidium bromide, and DNA fragmentations were visualized under ultraviolet light.
# In situ end-labeling (TUNEL): BPAEC were cultured in two-chamber slides (Nunc) and treated with TNF-gamma-alpha for 8 to 24 h. In situ detection of apoptotic cells was performed by using terminal deoxyribonucleotide transferase-mediated dUTP nick end labeling with an ApopTag in situ apoptosis detection kit (Oncor) following the manufacturer's recommendation.
# The cells were plated in two-chamber slides. The cells were cotransfected with 0.5 μg/ml of Pegfp-c-1 (Clontech; Li, Y. and Horwitz, M. S. Biotechnology 23:1026-1028) as a fluorescent marker of transfected cells together with 1 μg/ml of either the empty cloning vector pcDNA1 (control) or the dominant-interfering c-Jun mutant pcDNA1-FlagΔ169 (Xia, Z., et al., Science 270:1326-1331 (1995)) using Calphos Maximizer Transfection Kit (Clontech) according to the manufacturer's recommendation. Following transfection, the cells were allowed to recover in complete medium for 24 h. The cells were treated with TNF-gamma-alpha and the number of apoptotic cells was assessed by nuclear staining after fixation as described in Methods.
# [5] = test system: WEHI 164; test: TNF-gamma activity on WEHI 164 cells (MTS cytotoxicity/proliferation, morphology); format: cell-based, mouse; set-up: key to Proliferation / Differentiation / Adhesion: The numbers of “+” indicate the relative level of activities.; ++: The numbers of “+” indicate the relative level of activities.; +++: The numbers of “+” indicate the relative level of activities.; “−” indicates no detected activity at the concentration range tested
# Protocol: as §1, §2
substance,measurement,setting,value
TNF-gamma: new member of the tumor necrosis factor family; the term refers to TNF-gamma-alpha and/or TNF-gamma-beta,Adhesion,[1],−−
same,Differentiation,[1],−−
same,Proliferation,[1],−
same,morphology change (killed cells),"[2]; L929, 0.5 μg/ml, photographs after 72 hours (FIG. 8)",induced a morphology change which appeared as dark round cells (indicating killed cells)
same,Adhesion,"[2]; L929, mouse fibroblast",−−
same,Differentiation,"[2]; L929, mouse fibroblast",−−
same,Proliferation,"[2]; L929, mouse fibroblast",−
same,inhibition of L929 cell growth,"[2]; MTS assay, increasing amounts added",but not of the fibroblast cell line L929
same,Differentiation,[3],−?
same,Proliferation,[3],++
same,apoptosis,[4],induces apoptosis
same,inhibition of WEHI 164 cell growth,"[5]; MTS assay, increasing amounts added (FIG. 7B)",dose-dependent inhibitor of the growth
same,morphology change (killed cells),"[5]; WEHI 164, 0.5 μg/ml, photographs after 72 hours (FIG. 7A)",induced a morphology change which appeared as dark round cells (indicating killed cells)
same,Adhesion,"[5]; WEHI 164, mouse fibrosarcoma",−−
same,Differentiation,"[5]; WEHI 164, mouse fibrosarcoma",−−
same,Proliferation,"[5]; WEHI 164, mouse fibrosarcoma",−
